Consider two compounds from EP1006112A1, “3-Hydroxy-2(1H)-pyridinone or 3-hydroxy-4(1H)-pyridinone derivatives useful as reactive oxygen species (ROS) scavengers” (Cerebrus Pharmaceuticals Limited, priority 1998, dated 2000).

Counter-ions that a name gives are not always drawn.

The subject of assay [1] is cerebellar granule cell (CGC) cultures. Description: Iodoacetate induced cell toxicity in culture (cell death, MTT-reductase activity). The conditions noted are these: protection of CGC after 30-µM IAA for 30 min (with 10-µM MK-801), 24 hour incubation with test compound. The format is cell-based. Here is the method:
After 6-8 days in culture, cerebellar granule cell (CGC) cultures in 96-well plates (250,000 cells per well) were prepared for hypoglycaemia. lodoacetate (IAA) was made up in a balanced salt solution (BSS) (NaCl, 154.0-mM; KCl, 5.6-mM; MgCl2, 1.0-mM; CaCl2, 2.5-mM; N-[2-hydroxyethyl]piperazine-N'-[2-ethanesulfonic acid] (HEPES), 10.0-mM; D-glucose, 5.6-mM; pH 7.4) and any neuroprotective agents were made up in pre-warmed tissue culture media and allowed to equilibrate in a controlled environment (5 % CO2, 95 % air). The assay was initiated by aspiration of the maintenance media, which was replaced by either BSS (control) or 30-µM IAA in BSS, both solutions containing 10-µM of the NMDA receptor antagonist MK-801. The exposure to IAA was for 30 min only at 37 °C, after which time the BSS was aspirated and replaced with fresh, pre-equilibriated maintenance media containing various concentrations of test compound. All conditions were performed at least in duplicate in each 96 well plate. The final volume for each well was always 200 µL. Following a 24 hour incubation, visual inspection of the cells was followed by quantification of neuronal cell death by measuring 3-[4,5-dimethylthiazol-2-yl]-2,5-diphenyltetrazolium bromide (MTT)-reductase activity as described previously (Malcolm et al., J. Neurochem. 1996, 66, 2350-2360).

The test system of assay [2] is Lipid peroxidation in rat brain homogenates. Description: Lipid peroxidation assay (ascorbic acid-induced, TBA/MDA readout). In kind it is biochemical. The conditions noted are these: concentration required to inhibit lipid peroxidation by 50%; rat cortex preparation, 500-µM L-ascorbic acid, 37 °C, 30 min. The method, then:
Lipid peroxidation in rat brain homogenates is a general procedure used to measure the antioxidant capacity of molecules in a biological environment (Das N.P. and Ratty A.K., Biochem. Med. Metab. Biol, 1987, 37, 256-264).
Rat cortex was homogenised in 20 vols. of ice cold 0.32-M sucrose and centrifuged at 1,000 g for 10 min. The pellet was discarded whilst the resulting supernatant was centrifuged at 15,000 g for 20 min at 4 °C to yield p2 pellets. The pellet was re-suspended in ice-cold 50.0-mM phosphate buffer and centrifuged at 30,000 g for 20 min at 4 °C. The pellet was re-suspended in 30 vols. of 50.0-mM phosphate buffer and used immediately in the assay.
Assays contained 500-µM L-ascorbic acid to induce lipid peroxidation, plus various concentrations of test compound, with the tissue preparation in a total volume of 500 µL. This was incubated at 37 °C for 30 min. Lipid peroxidation was measured by adding to the reaction mixture, 300 µL 40 % (w/v) trichloroacetic acid, 150 µL 5.0-M HCl and 300 µL 2 % (w/v) 2-thiobarbituric acid (TBA). […] The pink colour of the supernatant was assessed spectrophotometrically at a wavelength of 532 nm. The amount of malondialdehyde (MDA) in the samples was calculated using a standard curve prepared with malondialdehyde tetrabutylammonium salt (Das, N.P. and Ratty, A.K. Biochem. Med. Metab. Biol. (1987), 37, 256-264). […]

In the case of `COc1ccc2[nH]cc(CCn3ccc(=O)c(O)c3C)c2c1` [Example 2, 3-Hydroxy-1-(2-(5-methoxy-3-indolyl)ethyl)-2-methyl-4(1H)-pyridinone], the EC50 (as a rule, the midpoint of the concentration-response curve) in assay [1] is 11.9 µM. In addition, in assay [2], the midpoint of inhibition, the IC50, lay at 2 µM.
For `COc1ccc2[nH]cc(CCNC(=O)CCn3ccc(=O)c(O)c3C)c2c1` [Example 1, 3-(1,4-Dihydro-3-hydroxy-2-methyl-4-oxo-1-pyridinyl)-N-(2-(5-methoxy-3-indolyl)ethyl)propanamide mesylate] the same measures were 4.9 µM and 1.5 µM.
